Holding throughout (assay): KINOMEscan competition binding
One test addresses LOK (Homo sapiens, UniProt O94804). The following applies: read-out: %Inh LOK.
In another test the target is T1, ITK (Homo sapiens, UniProt Q08881).
T1 sequence (Q08881 1-620): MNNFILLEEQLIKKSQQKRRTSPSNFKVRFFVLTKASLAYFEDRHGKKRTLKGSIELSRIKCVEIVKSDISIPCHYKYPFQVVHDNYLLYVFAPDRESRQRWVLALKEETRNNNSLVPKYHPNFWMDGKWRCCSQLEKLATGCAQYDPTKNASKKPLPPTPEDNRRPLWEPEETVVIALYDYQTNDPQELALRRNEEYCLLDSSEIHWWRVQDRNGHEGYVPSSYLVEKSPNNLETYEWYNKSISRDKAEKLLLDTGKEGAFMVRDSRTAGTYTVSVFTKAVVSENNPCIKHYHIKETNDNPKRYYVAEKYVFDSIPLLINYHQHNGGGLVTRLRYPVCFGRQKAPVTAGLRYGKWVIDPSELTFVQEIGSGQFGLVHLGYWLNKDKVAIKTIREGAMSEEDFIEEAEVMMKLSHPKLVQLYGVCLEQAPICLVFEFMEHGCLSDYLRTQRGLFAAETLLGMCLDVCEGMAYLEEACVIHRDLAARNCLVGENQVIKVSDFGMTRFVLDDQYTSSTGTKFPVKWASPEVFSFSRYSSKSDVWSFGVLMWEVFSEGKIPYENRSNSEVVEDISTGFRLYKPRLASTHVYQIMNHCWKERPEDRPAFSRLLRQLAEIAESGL
The following applies: read-out: %Inh ITK.

For the next test, the target named is FAK (Homo sapiens, UniProt Q05397). The following applies: read-out: %Inh FAK.
In another test the target is T2, IKK-alpha (Homo sapiens, UniProt O15111).
T2 sequence (O15111 1-745): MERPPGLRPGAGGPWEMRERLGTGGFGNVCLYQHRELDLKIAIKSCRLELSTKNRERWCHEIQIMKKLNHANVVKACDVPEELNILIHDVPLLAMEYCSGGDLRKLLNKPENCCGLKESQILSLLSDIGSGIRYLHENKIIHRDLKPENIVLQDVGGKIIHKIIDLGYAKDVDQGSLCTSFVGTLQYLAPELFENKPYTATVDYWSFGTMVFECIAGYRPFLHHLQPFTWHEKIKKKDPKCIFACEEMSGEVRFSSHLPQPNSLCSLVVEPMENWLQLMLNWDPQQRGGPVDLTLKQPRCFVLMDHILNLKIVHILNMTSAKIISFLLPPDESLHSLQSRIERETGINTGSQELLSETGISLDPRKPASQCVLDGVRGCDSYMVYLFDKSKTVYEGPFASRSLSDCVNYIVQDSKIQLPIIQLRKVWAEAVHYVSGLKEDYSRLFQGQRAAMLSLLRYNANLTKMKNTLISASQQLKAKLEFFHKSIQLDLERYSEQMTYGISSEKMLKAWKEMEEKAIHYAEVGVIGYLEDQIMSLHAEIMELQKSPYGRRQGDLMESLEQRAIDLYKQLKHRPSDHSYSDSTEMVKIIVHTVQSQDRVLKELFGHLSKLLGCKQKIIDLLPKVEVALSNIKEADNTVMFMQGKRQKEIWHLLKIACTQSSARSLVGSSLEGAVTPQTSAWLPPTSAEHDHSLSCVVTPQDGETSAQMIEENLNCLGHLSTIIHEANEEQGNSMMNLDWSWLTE
The settings on record: read-out: %Inh IKK-alpha.

Another test deals with T3, GRK2 (Homo sapiens, UniProt P25098).
T3 sequence (P25098 1-689): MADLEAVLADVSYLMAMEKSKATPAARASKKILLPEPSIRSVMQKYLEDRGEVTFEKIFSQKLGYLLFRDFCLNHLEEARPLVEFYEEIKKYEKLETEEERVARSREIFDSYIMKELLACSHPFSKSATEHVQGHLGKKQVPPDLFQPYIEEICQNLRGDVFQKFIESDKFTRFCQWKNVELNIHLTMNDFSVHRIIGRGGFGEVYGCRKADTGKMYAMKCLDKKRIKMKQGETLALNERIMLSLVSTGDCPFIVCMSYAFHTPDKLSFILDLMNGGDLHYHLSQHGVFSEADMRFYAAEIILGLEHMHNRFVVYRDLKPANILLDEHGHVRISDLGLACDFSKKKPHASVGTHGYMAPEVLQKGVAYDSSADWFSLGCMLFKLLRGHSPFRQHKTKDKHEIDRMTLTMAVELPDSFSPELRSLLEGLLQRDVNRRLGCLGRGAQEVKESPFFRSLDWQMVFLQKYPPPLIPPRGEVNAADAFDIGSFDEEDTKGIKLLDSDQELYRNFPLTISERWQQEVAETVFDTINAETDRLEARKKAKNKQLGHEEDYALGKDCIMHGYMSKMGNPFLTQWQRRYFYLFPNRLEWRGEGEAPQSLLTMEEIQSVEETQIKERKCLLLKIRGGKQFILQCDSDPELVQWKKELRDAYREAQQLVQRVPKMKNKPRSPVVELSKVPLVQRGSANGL
The settings on record: read-out: %Inh GRK2.

Another test concerns the target ERBB2 (Homo sapiens, UniProt P04626). The following applies: read-out: %Inh ERBB2.

Chain of FAK (Q05397 whole entry): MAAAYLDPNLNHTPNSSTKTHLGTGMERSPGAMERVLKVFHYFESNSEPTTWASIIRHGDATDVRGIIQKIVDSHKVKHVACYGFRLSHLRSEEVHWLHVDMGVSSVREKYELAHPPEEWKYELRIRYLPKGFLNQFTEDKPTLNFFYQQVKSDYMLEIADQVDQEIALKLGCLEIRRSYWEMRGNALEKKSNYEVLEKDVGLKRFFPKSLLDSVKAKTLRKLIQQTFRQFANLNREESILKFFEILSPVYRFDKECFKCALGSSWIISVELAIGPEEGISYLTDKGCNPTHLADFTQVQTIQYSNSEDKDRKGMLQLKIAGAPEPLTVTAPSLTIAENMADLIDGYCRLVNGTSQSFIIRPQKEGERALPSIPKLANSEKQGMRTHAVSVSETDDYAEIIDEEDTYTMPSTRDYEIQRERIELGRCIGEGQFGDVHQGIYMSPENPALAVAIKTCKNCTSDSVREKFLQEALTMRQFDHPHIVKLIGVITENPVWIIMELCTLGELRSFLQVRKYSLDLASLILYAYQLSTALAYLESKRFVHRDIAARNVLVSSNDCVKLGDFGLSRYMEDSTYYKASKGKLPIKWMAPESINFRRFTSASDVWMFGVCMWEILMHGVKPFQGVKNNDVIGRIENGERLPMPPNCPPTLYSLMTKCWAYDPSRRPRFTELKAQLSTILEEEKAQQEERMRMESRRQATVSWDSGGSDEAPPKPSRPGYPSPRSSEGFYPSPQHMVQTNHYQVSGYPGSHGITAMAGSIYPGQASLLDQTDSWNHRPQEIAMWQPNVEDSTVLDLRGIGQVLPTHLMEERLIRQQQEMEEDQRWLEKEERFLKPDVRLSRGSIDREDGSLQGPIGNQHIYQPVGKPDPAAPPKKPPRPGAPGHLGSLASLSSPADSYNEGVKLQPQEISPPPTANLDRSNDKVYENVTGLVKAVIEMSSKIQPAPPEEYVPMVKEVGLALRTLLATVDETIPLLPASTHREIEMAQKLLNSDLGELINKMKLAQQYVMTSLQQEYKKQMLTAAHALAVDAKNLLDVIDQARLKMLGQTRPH
Chain of LOK (O94804 whole entry): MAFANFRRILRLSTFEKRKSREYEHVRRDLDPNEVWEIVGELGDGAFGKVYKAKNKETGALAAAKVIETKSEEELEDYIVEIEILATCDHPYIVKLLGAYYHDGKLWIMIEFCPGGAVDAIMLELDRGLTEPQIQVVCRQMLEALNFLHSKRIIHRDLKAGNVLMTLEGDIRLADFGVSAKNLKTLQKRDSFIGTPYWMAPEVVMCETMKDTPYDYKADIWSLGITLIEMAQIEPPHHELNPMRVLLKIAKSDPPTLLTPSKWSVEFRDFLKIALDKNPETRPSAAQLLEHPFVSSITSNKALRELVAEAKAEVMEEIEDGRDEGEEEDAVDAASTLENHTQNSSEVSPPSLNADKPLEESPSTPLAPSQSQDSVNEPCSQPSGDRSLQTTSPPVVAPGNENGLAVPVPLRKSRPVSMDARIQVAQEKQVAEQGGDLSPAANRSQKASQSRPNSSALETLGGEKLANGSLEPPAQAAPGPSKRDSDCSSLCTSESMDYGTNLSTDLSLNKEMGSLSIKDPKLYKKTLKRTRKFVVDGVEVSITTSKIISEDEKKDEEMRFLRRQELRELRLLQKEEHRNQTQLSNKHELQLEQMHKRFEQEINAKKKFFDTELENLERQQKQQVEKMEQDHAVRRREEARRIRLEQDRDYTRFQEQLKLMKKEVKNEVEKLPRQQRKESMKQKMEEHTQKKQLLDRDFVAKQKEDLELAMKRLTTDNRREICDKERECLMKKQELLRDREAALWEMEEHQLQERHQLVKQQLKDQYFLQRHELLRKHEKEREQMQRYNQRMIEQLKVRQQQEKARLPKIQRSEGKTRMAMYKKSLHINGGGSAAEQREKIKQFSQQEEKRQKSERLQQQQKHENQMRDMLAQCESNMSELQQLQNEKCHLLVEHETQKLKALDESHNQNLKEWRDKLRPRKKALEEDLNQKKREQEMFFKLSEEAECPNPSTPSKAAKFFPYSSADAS
Chain of ERBB2 (P04626 23-1255): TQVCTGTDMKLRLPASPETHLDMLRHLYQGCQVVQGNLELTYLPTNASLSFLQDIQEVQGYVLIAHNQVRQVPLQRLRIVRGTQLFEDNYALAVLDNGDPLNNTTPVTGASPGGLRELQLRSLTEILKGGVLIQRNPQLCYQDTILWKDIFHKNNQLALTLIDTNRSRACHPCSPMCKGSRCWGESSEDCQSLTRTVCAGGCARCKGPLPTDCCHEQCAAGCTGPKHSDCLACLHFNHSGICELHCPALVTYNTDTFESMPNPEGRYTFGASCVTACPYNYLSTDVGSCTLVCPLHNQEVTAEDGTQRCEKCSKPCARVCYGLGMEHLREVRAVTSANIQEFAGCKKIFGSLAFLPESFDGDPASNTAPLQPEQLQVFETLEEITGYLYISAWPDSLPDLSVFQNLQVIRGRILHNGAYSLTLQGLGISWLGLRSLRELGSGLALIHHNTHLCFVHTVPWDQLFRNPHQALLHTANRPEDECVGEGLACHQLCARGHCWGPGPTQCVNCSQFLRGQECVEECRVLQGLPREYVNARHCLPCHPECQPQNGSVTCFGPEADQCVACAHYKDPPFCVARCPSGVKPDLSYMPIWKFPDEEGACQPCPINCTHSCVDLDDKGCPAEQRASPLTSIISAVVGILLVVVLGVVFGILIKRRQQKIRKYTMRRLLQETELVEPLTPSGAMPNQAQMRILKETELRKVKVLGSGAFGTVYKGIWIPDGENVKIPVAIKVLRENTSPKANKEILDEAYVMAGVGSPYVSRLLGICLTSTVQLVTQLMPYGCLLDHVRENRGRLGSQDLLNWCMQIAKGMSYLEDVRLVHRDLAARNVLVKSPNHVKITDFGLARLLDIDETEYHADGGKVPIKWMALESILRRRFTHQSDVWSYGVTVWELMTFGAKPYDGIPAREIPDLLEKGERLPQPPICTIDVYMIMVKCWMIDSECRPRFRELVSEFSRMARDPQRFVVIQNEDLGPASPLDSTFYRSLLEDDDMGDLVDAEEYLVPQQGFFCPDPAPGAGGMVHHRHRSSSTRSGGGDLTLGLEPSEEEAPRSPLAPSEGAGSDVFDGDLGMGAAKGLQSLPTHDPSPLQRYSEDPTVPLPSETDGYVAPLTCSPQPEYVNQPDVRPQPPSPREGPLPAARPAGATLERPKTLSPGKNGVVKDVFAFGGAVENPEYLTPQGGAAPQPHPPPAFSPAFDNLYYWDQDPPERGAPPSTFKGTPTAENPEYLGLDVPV

In the case of `Cn1cc(-c2cnc(N)c3c(-c4ccc5c(c4)CCN5C(=O)Cc4ccccc4)csc23)cn1` [UNC10225012A], the inhibition at 1 µM at LOK came out at 98.9%; on ITK it was 23%; at FAK, 7%; on IKK-alpha it was 0%; at GRK2, 0%; on ERBB2, 0%.
Take `CS(=O)(=O)Cc1ccc(Nc2nccc(-c3c(-c4cccc(NC(=O)C5CCCCC5)c4)nn4ncccc34)n2)cc1` [UNC10225159A]: the inhibition at 1 µM on LOK is 81%; at ITK, 6%; at FAK it was 0%; on IKK-alpha it was 0%; on GRK2, 44%; on ERBB2, 25%.
Take `Cc1ccc(NC(=O)Nc2cccc(C(F)(F)F)c2)cc1` [UNC10225187A]: the inhibition at 1 µM worked out at 0% at LOK; 12% on ITK; 1% at FAK; 0% at IKK-alpha; 0% at GRK2; 0% on ERBB2.
Turning to `COc1cccc(OC)c1C(=O)Nc1cccc(-c2nn3ccccc3c2-c2ccnc(Nc3cccc(F)c3)n2)c1` [UNC10225310A], the inhibition at 1 µM on LOK is 90%; at ITK, 93.8%; at FAK, 1%; at IKK-alpha it was 0%; on GRK2, 0%; at ERBB2, 61%.
For `O=c1cc(N2CCOCC2)nc2n(Cc3cccc(Cl)c3Cl)c(C3CC3)nn12` [UNC10225469A], the inhibition at 1 µM is 0% at LOK; 4% on ITK; 0% at FAK; 0% on IKK-alpha; 0% on GRK2; 0% on ERBB2.

The values are drawn from paper PMC5540273, “Progress towards a public chemogenomic set for protein kinases and a call for contributions” (PLoS ONE, 2017).
